From the supplement of paper PMC10307832

Assays:
Test in all cases: relative viability (nuclei count vs DMSO), 5 days (fraction); higher = more cells survive
[1] = compound: CC1=CC=C(C=C1)C(=O)CN2C3=C(CCCC3)SC2=N [Pifithrin_alpha] + COc1cc2c(Oc3ccc(NC(=O)C4(C(=O)Nc5ccc(F)cc5)CC4)cc3F)ccnc2cc1OCCCN1CCOCC1 [Foretinib] (partner 0.25 µM)
Method in brief: (§1)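 Values are medians from duplicate plates. Each reflects relative viability, defined as the nuclei count of treated wells over that of vehicle wells. Lung cancer cell lines in 1536-well plates were pin-tool dosed one day after seeding with one drug alone or with a fixed anchor-drug dose plus five library-drug doses (not always all listed) in √10 steps, then fixed, stained and imaged at 4× after 5 days.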

[2] = compound: CNC(=O)c1ccccc1Sc1ccc2c(/C=C/c3ccccn3)n[nH]c2c1 [Axitinib] + CCNC(=O)c1noc(-c2cc(C(C)C)c(O)cc2O)c1-c1ccc(CN2CCOCC2)cc1 [Luminespib] (partner 0.01 µM)
Method in brief: as §1

[3] = compound: CNC(=O)c1ccccc1Sc1ccc2c(/C=C/c3ccccn3)n[nH]c2c1 [Axitinib] + COc1cc2c(Oc3ccc(NC(=O)C4(C(=O)Nc5ccc(F)cc5)CC4)cc3F)ccnc2cc1OCCCN1CCOCC1 [Foretinib] (partner 0.25 µM)
Method in brief: as §1

[4] = compound: Nc1nc(Nc2ccc3c(c2)CC[C@@H](N2CCCC2)CC3)nn1-c1cc2c(nn1)-c1ccccc1CCC2 [Bemcentinib] + NC(=O)Nc1cc(-c2cccc(F)c2)sc1C(=O)N[C@H]1CCCNC1 [AZD7762] (partner 0.2 µM)
Method in brief: as §1

Cell Line | relative viability ([1]; first compound 1 µM) | relative viability ([1]; first compound 3.162 µM) | relative viability ([1]; first compound 10 µM) | relative viability ([1]; first compound 31.62 µM) | relative viability ([1]; first compound 100 µM) | relative viability ([2]; first compound 0.005 µM) | relative viability ([2]; first compound 0.01581 µM) | relative viability ([2]; first compound 0.05 µM) | relative viability ([2]; first compound 0.1581 µM) | relative viability ([2]; first compound 0.5 µM) | relative viability ([3]; first compound 0.005 µM) | relative viability ([3]; first compound 0.01581 µM) | relative viability ([3]; first compound 0.05 µM) | relative viability ([3]; first compound 0.1581 µM) | relative viability ([3]; first compound 0.5 µM) | relative viability ([4]; first compound 0.04 µM) | relative viability ([4]; first compound 0.1265 µM) | relative viability ([4]; first compound 0.4 µM) | relative viability ([4]; first compound 1.265 µM) | relative viability ([4]; first compound 4 µM)
HCC-827 | 1.01 | 0.996 | 0.84 | 0.597 | 0.857 | 0.599 | 0.514 | 0.325 | 0.728 | 0.459 | 1.06 | 0.984 | 1.04 | 1.01 | 1.13 | 0.19 | 0.163 | 0.186 | 0.198 | 0.161
HOP-62 | 1.17 | 1.16 | 1.18 | 1.03 | 1.19 | 0.934 | 0.798 | 0.908 | 0.885 | 0.85 | 1.07 | 1.14 | 1.06 | 1.09 | 1.3 | 0.531 | 0.505 | 0.599 | 0.527 | 0.511
NCI-H441 | 0.974 | 1.17 | 1.04 |  | 0.925 | 0.305 | 0.325 | 0.313 | 0.456 | 0.576 | 0.989 | 0.93 | 0.872 | 1.13 | 0.95 | 1.33 | 1.29 | 1.1 | 1.41 | 1.29
NCI-H2347 | 0.684 |  | 1.05 | 0.689 | 0.804 | 0.299 | 0.432 | 0.948 | 0.323 | 0.505 | 0.954 | 0.747 | 1.12 | 1.11 | 0.799 | 0.684 | 0.792 | 0.728 | 0.67 | 0.652
NCI-H358 | 0.773 | 0.777 | 0.645 | 0.467 | 0.541 | 0.478 | 0.364 | 0.436 | 0.338 | 0.325 | 0.701 | 0.738 | 0.859 | 0.695 | 0.925 | 0.527 | 0.516 | 0.562 | 0.411 | 0.602
NCI-H1944 | 0.816 | 0.713 | 0.732 | 0.47 | 0.677 | 0.755 | 0.726 | 0.717 | 0.738 | 0.769 | 0.892 | 0.881 | 0.978 | 0.882 | 1 | 0.645 | 0.563 | 0.488 | 0.452 | 0.32
ABC-1 | 1.16 | 1.11 | 1.03 | 0.942 | 0.724 | 0.777 | 0.727 | 0.444 |  | 0.552 | 1.02 | 1.04 | 1.17 | 0.916 | 1.29 |  | 0.937 | 0.799 | 0.816 | 1.09
